The data set relates to Spodoptera littoralis. Description: Insecticidal bioassay screening (castor leaf dip), laboratory strain of cotton leafworm. The format is in vivo. The note with it: for Toxicity index %: 72 hrs, Diflubenzuron's LC50 / the compound's LC50 × 100; for LC50: Spodoptera littoralis, foliar, 72 h. On the procedure:
Five concentrations (200, 100, 50, 25, 12.5 ppm) were designed for this synthetic compound and the reference Diflubenzuron compound as the dynamic ingredients based on mg/L via diluting the commercial formulation.
[…] Larvae of the second and fourth instars of each checked strain are prepared with treated leaves in gauze-covered glass containers for 72 hrs. An untreated control is made in which leaves are dipped in triton x-100 and distilled water only. Then the preserved leaves were removed & fresh, untreated leaves were provided for 72 hours. Three replicates (10 larvae each) were checked for each concentration. Daily inspection was carried out for all treatments and mortality percentages were recorded 3 days (72 hours) after treatment. The average mortality percentage was corrected employing Abbott's formula. The corrected mortality rate for each of the previously synthesized compounds is statistically calculated according to Finney (1970). Through this rate, the corresponding concentration test lines (LDP lines) are assessed.

Where [1] appears, read: 2nd instar larvae, laboratory strain, after 72 hrs of treatment.
The mark [2] stands for this setting: 4th instar larvae, laboratory strain, after 72 hrs of treatment.
Where [3] appears, read: read-out: LC50 (mg/L) at 95%, 2nd instar larvae, laboratory strain, after 72 hrs of treatment.
Setting [4] is: read-out: LC50 (mg/L) at 95%, 4th instar larvae, laboratory strain, after 72 hrs of treatment.

Converted amounts (≈) assume the structure as drawn. Read-outs that look alike come from different tables or passages of the source.

Consider `O=C(NC(=S)Nc1ncccn1)c1cc([N+](=O)[O-])cc([N+](=O)[O-])c1` [Compound 1, 3,5-dinitro-N-(pyrimidin-2-ylcarbamothioyl)benzamide], for which the Toxicity index % came to 23.7% (2nd instar larvae) and 33.4% (4th instar larvae). In addition, the “LC50 (mg/L) at 95%” value under setting [1] was “about 190.0 mg/L”. Further, the “LC90 (mg/L) at 95%” value under setting [1] was 1713.2 mg/L (≈ 4920 µM) and the “LC90 (mg/L) at 95%” value under setting [2] came out at 4020.4 mg/L (≈ 11500 µM). Moreover, the LC50 reads like this: under setting [3], 190 mg/L (≈ 546 µM); under setting [4], about 430 mg/L (≈ 1240 µM).

Turning to `O=C(NC(=O)c1c(F)cccc1F)Nc1ccc(Cl)cc1` [Diflubenzuron, reference compound], the Toxicity index % (2nd instar larvae) is reported as 100% and the Toxicity index % (4th instar larvae) was determined as 100%. Besides, the “LC90 (mg/L) at 95%” value reads like this: under setting [1], 520.0 mg/L (≈ 1670 µM); under setting [2], 1540.5 mg/L (≈ 4960 µM). For the same compound, the LC50 is, setting by setting: under setting [3], 45.2 mg/L (≈ 145 µM); under setting [4], 144 mg/L (≈ 464 µM).
